Test results published in patent publication US8344140B2, “18F-labelled folates” (Merck Eprova AG, priority 2007, dated 2013).

What was measured:
[1] = tested on: folate receptor-positive KB tumors; assay: ex vivo biodistribution in nude mice bearing KB xenografts tumors; details: ~2 MBq injected, 45 min post injection
Experimental: ^18F-click folate was applied in ex vivo biodistribution studies using eight nude mice bearing KB xenografts tumors. ˜2 MBq of the radiotracer were injected into each animal. In a blockade group (4 animals) […] natural folic acid was injected 10 min prior to the radiotracer. The animals were scarified 45 min post injection. […] Furthermore a specific uptake with 78% specific blockade was also found in the kidneys, which are known to express the folate receptor.

[2] = in vitro plasma stability study, human plasma; assay type: in vitro ADME; details: 37° C.
Experimental: (§1) The ^18F-click folate was employed in in vitro plasma stability studies and in metabolite studies using liver microsomes.
(§2) ^18F-click folate was incubated with both human and murine plasma at 37° C. in a shaking water bath. Aliquots were taken at different time points and analysed by HPLC.

[3] = metabolite study using murine liver microsomes; assay type: in vitro ADME; details: 37° C., aliquots at 0, 5, 15 and 30 min
Experimental: as §1
(§3) Metabolites studies using human and murine liver microsomes were carried out at 37° C. over a time span of 0-30 min. Aliquots were taken at 0, 5, 15 and 30 min.

[4] = in vitro plasma stability study, murine plasma; assay type: in vitro ADME; details: 37° C.
Experimental: as §1, §2

[5] = metabolite study using human liver microsomes; assay type: in vitro ADME; details: 37° C., aliquots at 0, 5, 15 and 30 min
Experimental: as §1, §3

[6] = tested on: folate receptor-positive KB tumors; assay: in vivo PET imaging in nude mice bearing KB xenografts tumors; details: ~11 MBq injected; PET scans 15 min to 45 min post injection
Experimental: In vivo PET imaging using the ^18F-click folate was performed in nude mice bearing KB xenografts tumors. ˜11 MBq of the radiotracer were injected into each animal. In the blockade group 200 μg natural folic acid was injected 10 min prior to the radiotracer. The PET scans were acquired from 15 min to 45 min post injection.
The KB tumors could be imaged by PET using ^18F-click folate.
PET imaging using [^18F]FDG was performed with the same animals four days after the ^18F-click folate studies. ˜9 MBq of [^18F]FDG were injected into each animal. The PET scans were acquired from 30 min to 60 min post injection. […] Although [^18F]FDG is the most commonly used radiotracer in PET tumor imaging, it is known that [^18F]FDG is not suitable for the imaging of KB xenografts tumors (Bettio et al, J. Nucl. Med. […]; 47: 1153-60).
FIG. 4 show the PET images using ^18F-click folate (left hand side) in comparison to PET images using [^18F]FDG (right hand side), the arrows indicate the position of the KB xenografts tumors.

SMILES: Nc1nc2ncc(CNc3ccc(C(=O)NC(CCC(=O)NCCCCn4cc(CCCC[18F])nn4)C(=O)O)cc3)nc2c(=O)[nH]1 (centres unmarked) [^18F-click folate, γ-(4-(4-(4-[^18F]fluorobutyl)-1,2,3-triazol-1-yl)butyl) folic acid amide]
- specific blockade of radiotracer uptake in KB tumors ([1]; KB tumors, natural folic acid 10 min prior in blockade group): 94%
- specific blockade of radiotracer uptake in kidneys ([1]; kidneys, natural folic acid 10 min prior in blockade group): 78%
- unspecific uptake in gallbladder, intestine and feces ([1]; points to hepatobiliary elimination): High unspecific uptake
- stability in plasma ([2]; HPLC analysis, 0-120 min): high stability
- defluorination or other radioactive degradation products in plasma ([2]; over a period of 0-120 min): No defluorination or other radioactive degradation products were detected
- radioactive metabolites or degradation in liver microsomes [3]: no radioactive metabolites or degradation
- stability in plasma ([4]; HPLC analysis, 0-120 min): high stability
- defluorination or other radioactive degradation products in plasma ([4]; over a period of 0-120 min): No defluorination or other radioactive degradation products were detected
- radioactive metabolites or degradation in liver microsomes [5]: no radioactive metabolites or degradation
- accumulation of radioactivity in the abdominal region (gallbladder, intestines) [6]: high accumulation
- tumor-to-background ratio [6]: low
